The target of assay [1] is T1, thymidylate synthase (TS) (Mus musculus, UniProt P07607).
T1 construct: gene Tyms; enzyme partially purified from the L1210:C15 TS-overproducing cell line
The assay can be described thus: inhibition of isolated mouse TS activity and inhibition kinetics (IC50 […], Kies […]). It counts as biochemical.

The target in assay [2] is T1, thymidylate synthase (TS). Description: inhibition of isolated mouse TS activity at […] (R,S)-5,10-CH2FH4. Type of assay: biochemical.

One may read the Ki as a measure of affinity in units of concentration, obtained from inhibition or displacement. A low value points to higher affinity. A word on the IC50: it is the concentration at which inhibition is half-maximal.

T1 sequence (P07607 whole entry): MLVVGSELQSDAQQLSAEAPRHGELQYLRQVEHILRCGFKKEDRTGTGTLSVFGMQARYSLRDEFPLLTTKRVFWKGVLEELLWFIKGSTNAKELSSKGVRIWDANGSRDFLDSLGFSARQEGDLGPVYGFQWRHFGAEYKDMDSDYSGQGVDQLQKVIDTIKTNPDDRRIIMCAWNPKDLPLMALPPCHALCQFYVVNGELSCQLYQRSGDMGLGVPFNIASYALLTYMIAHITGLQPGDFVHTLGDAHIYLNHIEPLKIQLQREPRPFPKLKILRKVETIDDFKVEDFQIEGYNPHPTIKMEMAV

For the molecule `C#CCN(Cc1cc2c(=O)[nH]c(C)nc2cc1Br)c1ccc(C(=O)NCc2ccccn2)cc1` [CB300179], in assay [1], affinity was put at a Ki of 160 nM.
On to `C#CCN(Cc1cc2c(=O)[nH]c(C)nc2cc1Br)c1ccc(C(=O)NCc2ccncc2)cc1` [CB300189], for which the IC50 in assay [2] is 250 nM.

(Values after publication PMC2362793, “A novel class of lipophilic quinazoline-based folic acid analogues: cytotoxic agents with a folate-independent locus” (British Journal of Cancer, 1999).)
